TGI and GI50 data for six compounds are collected here from PubChem BioAssay (NCI).

Test systems include HCT-15 colon; HL-60(TB) leukemia; HS 578T breast; IGROV1 ovarian; KM12 colon; M14 melanoma; MCF7 breast; MDA-N; MOLT-4 leukemia; SF-539 CNS; SK-MEL-2 melanoma; SK-MEL-5 melanoma; SNB-19 CNS; T-47D breast; TK-10 renal; UACC-257 melanoma; UACC-62 melanoma.
Common to all, as to assay: NCI anticancer screen, dose series, 48 h

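Protocol summary: plate cells (96-well), add compound at 5 concentrations, incubate 48 h, interpolate endpoints linearly. At the GI50, growth is halved. TGI: total growth inhibition.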

Regarding `Cc1ccc(-c2cc(-c3ccc(Cl)cc3)nc(/N=C3\C(=O)N(CN4CCOCC4)c4ccccc43)n2)cc1`, the TGI in the experiment with HCT-15 colon is more than 100 µM; in the experiment with HL-60(TB) leukemia, 26.3 µM; in the experiment with HS 578T breast, 51.5 µM; in the experiment with IGROV1 ovarian, 39.3 µM; in the experiment on KM12 colon, 58.5 µM; in the experiment with M14 melanoma it was 87.4 µM. Also, the TGI with MCF7 breast is more than 100 µM; in the experiment with MDA-N, 37.6 µM; with MOLT-4 leukemia, 35.8 µM; in the experiment on SF-539 CNS, 36.5 µM; in the experiment on SK-MEL-2 melanoma, 37.2 µM; with SK-MEL-5 melanoma, 36.1 µM. Besides, the TGI was 42.2 µM in the experiment on SNB-19 CNS; more than 100 µM with T-47D breast; 81.7 µM in the experiment on TK-10 renal; 46.4 µM with UACC-257 melanoma; 41.4 µM with UACC-62 melanoma.

In the case of `O=C(NO)c1ccc(OCc2cccc(Cl)c2)cc1`, the TGI with HCT-15 colon was 29.9 µM; with HL-60(TB) leukemia it was 20.8 µM; in the experiment on HS 578T breast, more than 96 µM; in the experiment on IGROV1 ovarian it was 23.3 µM; in the experiment with KM12 colon, 29.9 µM; with M14 melanoma, more than 45.8 µM. Besides, the TGI is more than 100 µM in the experiment with MCF7 breast; 35.4 µM in the experiment with MDA-N; more than 45.9 µM in the experiment on MOLT-4 leukemia; more than 41.8 µM in the experiment on SF-539 CNS; 70.4 µM in the experiment with SK-MEL-2 melanoma; more than 100 µM in the experiment on SK-MEL-5 melanoma. Also, the TGI in the experiment on SNB-19 CNS was more than 100 µM; in the experiment with T-47D breast it was more than 61.5 µM; in the experiment on TK-10 renal, 32.3 µM; with UACC-257 melanoma, 46.8 µM; in the experiment with UACC-62 melanoma it was 21.7 µM.

On to `CC(=O)OCC1OC(n2c(C#N)cc(=O)[nH]c2=O)CC1OC(C)=O` (centres undefined), for which the TGI with HCT-15 colon, in the experiment on HL-60(TB) leukemia, in the experiment on HS 578T breast, in the experiment with IGROV1 ovarian, with KM12 colon and in the experiment on M14 melanoma was more than 100 µM in each case. The TGI in the experiment with MCF7 breast, with MDA-N, in the experiment with MOLT-4 leukemia, in the experiment with SF-539 CNS, in the experiment with SK-MEL-2 melanoma and with SK-MEL-5 melanoma was more than 100 µM in each case. The TGI in the experiment on SNB-19 CNS, in the experiment on T-47D breast, in the experiment on TK-10 renal, in the experiment on UACC-257 melanoma and in the experiment on UACC-62 melanoma was more than 100 µM in each case.

Turning to `C/C(=C/c1ccccc1)CN(C(=O)/C=C\Sc1ccccc1)C(C)(C)C`, the TGI with HCT-15 colon was more than 100 µM; in the experiment on HL-60(TB) leukemia, more than 100 µM; in the experiment on HS 578T breast, more than 47.8 µM; in the experiment with IGROV1 ovarian it was more than 100 µM; in the experiment on KM12 colon it was more than 100 µM; in the experiment on M14 melanoma, more than 100 µM. In addition, the TGI in the experiment with MCF7 breast, in the experiment on MDA-N, with MOLT-4 leukemia, in the experiment with SF-539 CNS, in the experiment with SK-MEL-2 melanoma and in the experiment on SK-MEL-5 melanoma was more than 100 µM in each case. Further, the TGI with SNB-19 CNS, in the experiment on T-47D breast, in the experiment on TK-10 renal, with UACC-257 melanoma and with UACC-62 melanoma was more than 100 µM in each case.

For `O=C1Oc2ccccc2C(=O)/C1=C/N1C(=O)/C(=C/c2ccc3c(c2)OCO3)SC1=S`, the TGI was 33.2 µM in the experiment on HCT-15 colon; more than 64.4 µM in the experiment with HL-60(TB) leukemia; 14.9 µM in the experiment on HS 578T breast; 37.2 µM in the experiment on IGROV1 ovarian; 32 µM with KM12 colon; 31.9 µM with M14 melanoma. Further, the TGI in the experiment with MCF7 breast was more than 58.4 µM; with MDA-N, 77.7 µM; in the experiment on MOLT-4 leukemia, 35.9 µM; in the experiment on SF-539 CNS, 26.7 µM; with SK-MEL-2 melanoma, 34.2 µM; with SK-MEL-5 melanoma, 29.8 µM. The TGI in the experiment on SNB-19 CNS is 37.1 µM; in the experiment on T-47D breast it was 31 µM; in the experiment on TK-10 renal, 22.7 µM; in the experiment with UACC-257 melanoma, 51.5 µM; in the experiment with UACC-62 melanoma, more than 47.7 µM. The GI50 in the experiment with SNB-19 CNS was 12.6 µM; in the experiment on TK-10 renal it was 10.1 µM.

As for `Cc1ccc2c3c(cnc2n1)C(=O)OCCN3C`, the TGI in the experiment on HCT-15 colon, in the experiment with HL-60(TB) leukemia, in the experiment with HS 578T breast, in the experiment with IGROV1 ovarian, in the experiment with KM12 colon and in the experiment with M14 melanoma was more than 100 µM in each case. Besides, the TGI in the experiment with MCF7 breast, in the experiment on MDA-N, with MOLT-4 leukemia, in the experiment with SF-539 CNS, in the experiment on SK-MEL-2 melanoma and in the experiment with SK-MEL-5 melanoma was more than 100 µM throughout. In addition, the TGI in the experiment with SNB-19 CNS, with T-47D breast, in the experiment on TK-10 renal, with UACC-257 melanoma and in the experiment with UACC-62 melanoma was more than 100 µM in each case.
